Laboratory results from patent US20140326192A1, “ANTIMICROBIAL ANIMAL PRODUCT” (COVENTRY UNIVERSITY, priority 2011, published 2014).

Test: Stability of the antimicrobial agent to melting during processing (activity retained)
Type: physicochemical
Experimental: Bundles of the dosed and non-dosed fibres were melted at 170° C. and compressed, to manufacture a number of continuous, smooth, 2 mm thick plastic sheets. The sheets were cut to create 50×50 mm area test pieces, as required by the standard test for Anti Microbial Activity ISO 22196:2007. This test is an appropriate method for assessing the surface antimicrobial activity of plastic materials when micro-organisms are placed onto the test piece.
3-(trihydroxysilyl)propyldimethyl octodecyl ammonium chloride was combined with polypropylene stock at a dosing rate of around 1% by total weight and the mixture melted, before extruding it into fibres. Control fibres were produced by a method identical other than omission of the 3-(trihydroxysilyl)propyldimethyl octodecyl ammonium chloride. The fibres were 0.45 mm with an X shape cross section and 100 mm long.

With CCCCCCCCCCCCCCCCCC[N+](C)(C)CCC[Si](O)(O)O.[Cl-] [antimicrobial agent, 3-(trihydroxysilyl)propyldimethyl octodecyl ammonium chloride] the “stability to re-melting of the fibres when making the test pieces” value (fibres melted at 170° C. and compressed) was “sufficiently stable” and the “stability after melting when making the fibres” value (melting to 200° C.) was “sufficiently stable”.
